Measured values: patent US20080213363A1, “Methods and compositions for delivering 5-HT3 antagonists across the oral mucosa” (priority 2003, published 2008)
Read-outs that look alike come from different tables or passages of the source.

Type: in vitro ADME
Conditions: PAMPA
Description: Topics Med. Chem. 2001, 1, 277-351.

Papp (pH 5.4): 0.32 ×10⁻⁶ cm/s | Papp (pH 7.4): 1.3 ×10⁻⁶ cm/s | Papp (pH 8.5): 3.25 ×10⁻⁶ cm/s
Compound: Cc1nccn1CC1CCc2c(c3ccccc3n2C)C1=O.Cl (stereo not drawn) [Ondansetron HCl, ondansetron HCl]
